Laboratory results taken from ChEMBL document CHEMBL1132803, “L-Selenohomocysteine: one-step synthesis from L-selenomethionine and kinetic analysis as substrate for methionine synthases” (Bioorg Med Chem Lett, 2000).

Columns and labels:
[1] = Second order rate constant was determined; format: ADME
[2] = Specific activity of compound was determined; format: ADME

Km [1]: 69 µM
Specific activity [2]: 0.23 µM/min/mg
Structure (SMILES): NC(CCS)C(=O)O (configuration not stated) [HOMOCYSTEINE]
